Laboratory results from US20230406840A1, “N-(2-(3-CYANO-2-AZABICYCLO[3.1.0]HEXAN-2-YL)-2-OXOETHYL)QUINOLINE-4-CARBOXAMIDES” (AstraZeneca AB, priority 2022, published 2023).

How the values were obtained:
[1] = target: human Fibroblast activation protein alpha (hFAP) (Homo sapiens (Human), UniProt Q12884); assay: hFAP inhibition assay (tight binders); format: biochemical; conditions: tight-binder format, Ala-Pro-AMC 20 μM, 2.5 h incubation; n = 1 or geometric mean (n = 5-10)
Protocol: Data were analyzed in Genedata Screener®.

hFAP = hFAP (Homo sapiens (Human), UniProt Q12884);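 further: fluorescence read after incubating enzyme with substrate at room temperature, IC50 fitted from percent inhibition against log concentration with a one-site model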
Sequence of hFAP (Q12884 38-760): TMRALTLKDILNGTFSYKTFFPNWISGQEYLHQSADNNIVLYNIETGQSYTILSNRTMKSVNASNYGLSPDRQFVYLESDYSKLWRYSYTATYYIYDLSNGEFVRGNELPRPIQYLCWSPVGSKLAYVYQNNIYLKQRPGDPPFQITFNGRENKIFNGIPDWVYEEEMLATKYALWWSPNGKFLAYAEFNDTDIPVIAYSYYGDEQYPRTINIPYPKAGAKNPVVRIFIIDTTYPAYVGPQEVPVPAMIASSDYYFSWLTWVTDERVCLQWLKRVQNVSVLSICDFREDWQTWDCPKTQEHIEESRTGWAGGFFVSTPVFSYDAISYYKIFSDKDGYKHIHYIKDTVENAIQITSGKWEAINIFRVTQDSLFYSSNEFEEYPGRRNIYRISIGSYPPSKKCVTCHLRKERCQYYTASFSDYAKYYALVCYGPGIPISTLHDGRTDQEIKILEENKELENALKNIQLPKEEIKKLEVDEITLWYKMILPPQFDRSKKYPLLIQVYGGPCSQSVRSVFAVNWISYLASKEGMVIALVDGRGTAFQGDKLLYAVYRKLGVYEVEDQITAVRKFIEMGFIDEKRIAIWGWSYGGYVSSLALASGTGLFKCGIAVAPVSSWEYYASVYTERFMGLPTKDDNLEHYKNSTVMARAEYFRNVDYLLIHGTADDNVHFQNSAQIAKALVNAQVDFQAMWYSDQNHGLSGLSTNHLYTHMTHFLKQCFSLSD
Protocol: Compounds were tested in a biochemical inhibition assay using hFAP enzyme at 0.24 nM FAC (Proteros, 38-760 (PR-0071)) and the substrate Ala-Pro-AMC (ARI-3144) at 20 μM FAC. 384 low volume black plates (Greiner #784076) were used. 4 μL, 0.48 nM enzyme solution (100 mM Tris HCl, 100 mM NaCl, 0.05% Chaps, pH 7.4) was added to 40 nL compounds (in DMSO) at 10 CR, 3-fold dilution series from 50 μM FAC. Plates were incubated for 15 min at rt in dark. 4 μL, 40 μM substrate solution (100 mM Tris HCl, 100 mM NaCl, 0.05% Chaps, pH 7.4) was added to each well. Plates were centrifuged at 1000 rpm and incubated for 30 min at rt in dark. The plates were read on a PHERAstar® reader with excitation 340 nm and emission 460 nm. Data were analyzed in Genedata Screener®. IC50 values were determined by plotting % inhibition versus log compound concentration and using a one site dose response model.

Rat Hepatocytes (rHep) = assay: Metabolic stability in rat hepatocytes (rHep); format: in vitro ADME
Protocol: Metabolic stability in rat hepatocytes was measured as described in J Comput Aided Mol Des 2015, 29, 795.

FAP Mouse Plasma = FAP Mouse Plasma (Mus musculus (Mouse), UniProt P97321); assay: FAP plasma inhibition assay, mouse plasma; format: biochemical; conditions: mouse plasma dilution 1:67, Ala-Pro-AMC 75 μM; n = 1
Sequence of FAP Mouse Plasma (P97321 24-761 limits assumed): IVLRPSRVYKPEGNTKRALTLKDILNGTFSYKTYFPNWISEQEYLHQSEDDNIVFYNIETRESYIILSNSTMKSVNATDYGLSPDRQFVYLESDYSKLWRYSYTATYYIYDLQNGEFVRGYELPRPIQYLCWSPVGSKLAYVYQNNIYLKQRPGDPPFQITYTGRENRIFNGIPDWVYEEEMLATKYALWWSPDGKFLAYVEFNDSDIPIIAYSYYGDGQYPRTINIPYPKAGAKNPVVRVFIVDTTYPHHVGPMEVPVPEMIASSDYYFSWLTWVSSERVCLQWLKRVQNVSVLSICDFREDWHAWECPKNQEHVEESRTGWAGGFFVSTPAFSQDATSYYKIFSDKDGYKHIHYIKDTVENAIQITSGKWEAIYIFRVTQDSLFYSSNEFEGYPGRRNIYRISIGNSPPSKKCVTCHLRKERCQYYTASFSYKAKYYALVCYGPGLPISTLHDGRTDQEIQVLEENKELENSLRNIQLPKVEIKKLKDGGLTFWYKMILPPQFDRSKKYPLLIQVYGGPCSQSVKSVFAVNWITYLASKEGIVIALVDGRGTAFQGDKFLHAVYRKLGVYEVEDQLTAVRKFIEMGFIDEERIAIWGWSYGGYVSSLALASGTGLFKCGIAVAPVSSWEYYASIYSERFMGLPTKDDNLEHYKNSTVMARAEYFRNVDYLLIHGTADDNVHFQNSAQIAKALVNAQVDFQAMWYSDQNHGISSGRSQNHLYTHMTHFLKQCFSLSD
Protocol: (§1) This assay was adapted from the method described in Example 53 for detection of FAP target engagement enzyme activity in plasma. Plasma (anticoagulant K2EDTA) was used as the enzyme source: Human plasma (Pooled from AZ Biobank) and Mouse plasma (AZ AST Biobank). 384-Well black fluotrack PS plates (Greiner 781076) were used. 20 μL diluted plasma (Human plasma dilution 1:40, Mouse plasma dilution 1:67) in buffer (PBS, 0.1% BSA) was added to 0.6 μL compounds (in DMSO). Compounds were tested using 10 CR, 3-fold dilution series from 500 nM FAC. Two replicates for each assay point were run on the same plate. A fluorescence blank read was taken before substrate addition. Substrate, Ala-Pro-AMC (ARI-3144) stock solution (20 mM in DMSO) was diluted in buffer (PBS, 0.1% BSA) to 150 μM concentration and 20 μL added giving 75 μM FAC. Plates were incubated for 40 min at rt in the dark. The plates were read on a Beckman Paradigm® reader with excitation 360 nm and emission 465 nm. Data were analyzed in Excel (IDBS XLfit Add-In) using a one site dose response model (4-parameter logistic fit). […] Raw data signals were normalized using 1.5% DMSO in diluted plasma as 0% control and 1.5% DMSO in buffer (no plasma) as 100% inhibitor control.

[2] = target: Prolyl Oligopeptidase (hPREP) (Homo sapiens (Human), UniProt P48147); assay: hPREP inhibition assay; format: biochemical; conditions: hPREP 0.6 nM, Z-Gly-Pro-amino-methylcoumarin 50 μM; read-out: PREP IC50
Sequence of Prolyl Oligopeptidase (hPREP) (P48147 whole entry): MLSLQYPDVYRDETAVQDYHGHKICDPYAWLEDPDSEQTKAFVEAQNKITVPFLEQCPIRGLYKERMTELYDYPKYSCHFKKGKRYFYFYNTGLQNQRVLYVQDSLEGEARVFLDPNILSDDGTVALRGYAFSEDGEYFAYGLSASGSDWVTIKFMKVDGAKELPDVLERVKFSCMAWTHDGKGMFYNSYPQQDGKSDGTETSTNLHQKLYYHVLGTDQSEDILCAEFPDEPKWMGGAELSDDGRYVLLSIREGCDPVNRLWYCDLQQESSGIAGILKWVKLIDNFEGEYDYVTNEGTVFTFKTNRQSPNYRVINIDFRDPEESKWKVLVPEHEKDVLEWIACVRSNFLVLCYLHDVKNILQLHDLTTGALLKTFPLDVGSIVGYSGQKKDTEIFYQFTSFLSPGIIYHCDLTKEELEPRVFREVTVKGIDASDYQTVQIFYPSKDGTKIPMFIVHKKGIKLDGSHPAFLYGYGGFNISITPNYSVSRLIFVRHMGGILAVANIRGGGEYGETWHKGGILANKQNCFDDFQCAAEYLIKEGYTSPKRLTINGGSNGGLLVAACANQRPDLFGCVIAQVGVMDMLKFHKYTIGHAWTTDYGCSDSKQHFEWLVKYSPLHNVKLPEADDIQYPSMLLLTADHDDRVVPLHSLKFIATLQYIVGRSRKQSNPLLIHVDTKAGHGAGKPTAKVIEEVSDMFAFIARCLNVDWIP
Procedure, shortened: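 Recombinant human PREP at 0.6 nM final, with Z-Gly-Pro-AMC substrate at 50 μM final. Buffer: 25 mM Tris HCl pH 7.5, 250 mM NaCl, 0.01% Triton X-100, 5 mM glutathione. Incubated 20 min at rt in the dark; fluorogenic AMC release read.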

Human Hepatocytes (hHep) = assay: Metabolic stability in human hepatocytes (hHep); format: in vitro ADME
Protocol: Metabolic stability in human hepatocytes was measured as described in Xenobiotica 2010, 40, 637.

[3] = target: human dipeptidylpeptidase 8 (hDPP8) (Homo sapiens (Human), UniProt Q6V1X1); assay: hDPP8 inhibition assay; format: biochemical; conditions: single concentration 10 μM; n = 1
Sequence of human dipeptidylpeptidase 8 (hDPP8) (Q6V1X1 whole entry): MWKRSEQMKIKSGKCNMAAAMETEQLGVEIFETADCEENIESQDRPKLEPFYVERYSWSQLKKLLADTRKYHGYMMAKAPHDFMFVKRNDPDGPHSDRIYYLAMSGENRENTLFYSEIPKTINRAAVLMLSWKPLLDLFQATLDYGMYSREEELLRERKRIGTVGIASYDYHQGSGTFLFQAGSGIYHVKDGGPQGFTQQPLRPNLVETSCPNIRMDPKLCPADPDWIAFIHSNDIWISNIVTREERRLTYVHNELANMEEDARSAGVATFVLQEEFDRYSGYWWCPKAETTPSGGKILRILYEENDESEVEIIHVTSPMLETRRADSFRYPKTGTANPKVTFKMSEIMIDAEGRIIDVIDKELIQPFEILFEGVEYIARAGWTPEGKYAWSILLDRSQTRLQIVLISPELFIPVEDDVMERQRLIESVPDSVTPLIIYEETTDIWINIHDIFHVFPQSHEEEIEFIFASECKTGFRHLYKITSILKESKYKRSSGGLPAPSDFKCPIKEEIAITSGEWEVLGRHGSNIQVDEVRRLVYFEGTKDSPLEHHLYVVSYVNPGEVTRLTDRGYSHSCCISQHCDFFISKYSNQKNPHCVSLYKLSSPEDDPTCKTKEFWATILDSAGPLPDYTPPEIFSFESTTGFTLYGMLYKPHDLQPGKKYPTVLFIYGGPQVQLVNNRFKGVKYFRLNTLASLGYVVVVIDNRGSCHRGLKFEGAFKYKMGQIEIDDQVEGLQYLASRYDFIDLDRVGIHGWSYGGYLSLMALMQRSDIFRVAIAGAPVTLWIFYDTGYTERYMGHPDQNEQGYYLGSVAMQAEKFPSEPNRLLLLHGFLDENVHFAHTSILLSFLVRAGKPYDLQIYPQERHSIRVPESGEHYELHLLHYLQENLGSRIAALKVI
Protocol: Compounds were tested in a biochemical inhibition assay using human dipeptidylpeptidase 8 (hDPP8) enzyme (BPS Bioscience, #80800) and the substrate Gly-Pro-amino-methylcoumarin (Enzo #BML-P189-0005) at 10 μM FAC. The enzymatic reactions were conducted in duplicate at rt for 20 min in 50 μL assay buffer (50 mM Tris, pH 7.5, 0.1% BSA). Compound solutions (in DMSO), were prepared in assay buffer ten-fold higher than the final concentration, and 5 μL of the dilution was added to a 50 μL reaction so that the compound concentration was 10 μM FAC and the concentration of DMSO was 1% in all wells. The plates were read on a PHERAstarPLUS (BMG) using kinetic mode with excitation 340 nm and emission 460 nm. Data were analyzed in Graph Pad Prism. Raw data signals were normalized using 1% DMSO as 0% control and no enzyme as 100% inhibitor control.

FAP Human Plasma = FAP Human Plasma (Homo sapiens (Human), UniProt Q12884); assay: FAP plasma inhibition assay, human plasma; format: biochemical; conditions: human plasma dilution 1:40, Ala-Pro-AMC 75 μM; n = 1
Sequence of FAP Human Plasma (Q12884 24-760 limits assumed): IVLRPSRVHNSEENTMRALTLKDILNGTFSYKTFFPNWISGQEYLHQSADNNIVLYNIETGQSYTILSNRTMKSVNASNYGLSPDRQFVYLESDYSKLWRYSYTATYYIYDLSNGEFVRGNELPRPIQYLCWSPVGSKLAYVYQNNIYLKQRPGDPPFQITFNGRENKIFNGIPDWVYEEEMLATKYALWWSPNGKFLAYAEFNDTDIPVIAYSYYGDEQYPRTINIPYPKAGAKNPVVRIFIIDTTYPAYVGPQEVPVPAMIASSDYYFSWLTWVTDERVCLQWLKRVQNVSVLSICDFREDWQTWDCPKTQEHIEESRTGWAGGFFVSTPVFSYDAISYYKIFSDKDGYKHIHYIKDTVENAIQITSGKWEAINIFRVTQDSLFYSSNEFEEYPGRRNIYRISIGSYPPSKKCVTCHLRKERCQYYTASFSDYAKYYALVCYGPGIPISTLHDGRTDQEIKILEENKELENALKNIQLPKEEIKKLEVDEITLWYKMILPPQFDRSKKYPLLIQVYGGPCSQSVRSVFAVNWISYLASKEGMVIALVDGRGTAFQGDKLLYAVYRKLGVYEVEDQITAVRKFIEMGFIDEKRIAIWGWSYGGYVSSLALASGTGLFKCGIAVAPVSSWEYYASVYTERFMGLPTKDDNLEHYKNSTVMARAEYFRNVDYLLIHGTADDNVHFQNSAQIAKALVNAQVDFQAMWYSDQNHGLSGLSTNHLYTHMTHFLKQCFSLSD
Protocol: as §1

Kinetic solubility = format: physicochemical; conditions: kinetic from dmso stock
Protocol: Kinetic solubility was measured as described in Comput Aided Mol Des 2015, 29, 795.

[4] = Metabolic stability in human liver microsomes (HLM); format: in vitro ADME
Protocol: Metabolic stability in HLM was measured as described in J Comput Aided Mol Des 2015, 29, 795.

[5] = target: human dipeptidylpeptidase 9 (hDPP9) (Homo sapiens (Human), UniProt Q86TI2); assay: hDPP9 inhibition assay; format: biochemical; conditions: highest compound concentration 10 μM; n = 1
Sequence of human dipeptidylpeptidase 9 (hDPP9) (Q86TI2 whole entry): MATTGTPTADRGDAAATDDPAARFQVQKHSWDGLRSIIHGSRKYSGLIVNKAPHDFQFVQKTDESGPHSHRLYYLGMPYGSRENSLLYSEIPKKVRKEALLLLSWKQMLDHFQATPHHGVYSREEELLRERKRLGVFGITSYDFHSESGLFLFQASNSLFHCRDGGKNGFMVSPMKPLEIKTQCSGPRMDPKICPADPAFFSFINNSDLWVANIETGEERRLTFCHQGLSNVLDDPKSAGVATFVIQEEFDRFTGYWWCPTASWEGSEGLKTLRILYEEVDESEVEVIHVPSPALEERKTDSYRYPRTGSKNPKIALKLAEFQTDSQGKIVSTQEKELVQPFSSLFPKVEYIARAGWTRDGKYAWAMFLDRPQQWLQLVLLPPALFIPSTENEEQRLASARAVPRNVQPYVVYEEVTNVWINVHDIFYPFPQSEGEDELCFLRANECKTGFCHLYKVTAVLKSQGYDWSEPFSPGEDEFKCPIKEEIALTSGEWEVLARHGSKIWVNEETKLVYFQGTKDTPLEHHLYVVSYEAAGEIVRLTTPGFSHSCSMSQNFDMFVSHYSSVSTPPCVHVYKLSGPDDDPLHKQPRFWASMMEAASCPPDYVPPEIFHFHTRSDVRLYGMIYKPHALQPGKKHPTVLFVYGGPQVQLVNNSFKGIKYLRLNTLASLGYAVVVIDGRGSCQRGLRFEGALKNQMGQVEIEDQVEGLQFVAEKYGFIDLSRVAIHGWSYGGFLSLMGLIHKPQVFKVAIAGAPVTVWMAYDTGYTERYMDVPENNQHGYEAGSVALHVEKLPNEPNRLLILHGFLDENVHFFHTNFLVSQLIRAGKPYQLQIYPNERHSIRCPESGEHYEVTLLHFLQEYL
Protocol: Compounds were tested in a biochemical inhibition assay using human dipeptidylpeptidase 9 (hDPP9) enzyme (R&D, #5419-SE-010) and the substrate Gly-Pro-amino-methylcoumarin (Enzo #BML-P189-0005) at 10 μM FAC. The enzymatic reactions were conducted in duplicate at rt for 30 min in 50 μL assay buffer (50 mM Tris, pH 7.5, 0.1% BSA). Compound solutions (in DMSO) at 10 CR, 3-fold dilution series were prepared in assay buffer ten-fold higher than the final concentration, and 5 μL of the dilution was added to a 50 μL reaction so that the highest compound concentration was 10 μM FAC and the concentration of DMSO was 1% in all wells. The plates were read on a PHERAstarPLUS (BMG) using kinetic mode with excitation 340 nm and emission 460 nm. Data were analyzed in Graph Pad Prism. […] Raw data signals were normalized using 1% DMSO as 0% control and no enzyme as 100% inhibitor control.

[6] = target: human dipeptidylpeptidase 7 (hDPP7) (Homo sapiens (Human), UniProt Q9UHL4); assay: hDPP7 inhibition assay; format: biochemical; conditions: highest compound concentration 10 μM; n = 1
Protocol: Compounds were tested in a biochemical inhibition assay using human dipeptidylpeptidase 7 (hDPP7) enzyme (BPS Bioscience, #80070) and the substrate Ala-Pro-amino-methylcoumarin (BPS Bioscience, #80305) at 10 μM FAC. The enzymatic reactions were conducted in duplicate at rt for 20 min in 50 μL assay buffer (10 mM Tris-HCl, pH 7.4, 10 mM MgCl2, 1 mM MnCl2). Compound solutions (in DMSO) at 10 CR, 3-fold dilution series were prepared in assay buffer ten-fold higher than the final concentration, and 5 μL of the dilution was added to a 50 μL reaction so that the highest compound concentration was 10 μM FAC and the concentration of DMSO was 1% in all wells. The plates were read on a PHERAstarPLUS (BMG) using kinetic mode with excitation 340 nm and emission 460 nm. Data were analyzed in Graph Pad Prism. Raw data signals were normalized using 1% DMSO as 0% control and no enzyme as 100% inhibitor control.

Sequence of human Fibroblast activation protein alpha (hFAP) (Q12884 38-760): as the sequence (Q12884 38-760) above

In the case of `N#C[C@@H]1C[C@@H]2C[C@@H]2N1C(=O)CNC(=O)c1ccnc2cc(C(F)(F)F)ccc12` [Example 23, N-(2-((1S,3S,5S)-3-Cyano-2-azabicyclo[3.1.0]hexan-2-yl)-2-oxoethyl)-7-(trifluoromethyl)quinoline-4-carboxamide], the IC50 [1] is reported as 0.33 nM, the IC50 (hFAP) is reported as 0.81 nM and the “rHeps CLint” value (Rat Hepatocytes (rHep)) is reported as 7.7 μL/min/1E6. For the same molecule, the IC50 (FAP Mouse Plasma) was 1.9 nM, the IC50 [2] was 12000 nM and the “hHep CLint” value (Human Hepatocytes (hHep)) was 1.6 μL/min/1E6. The “hDPP8 Activity at Compound Concentration 10 μM” value [3] was “Not Active”, the IC50 (FAP Human Plasma) was 3.6 nM and the solubility (Kinetic solubility) was > 1000 µM. The microsomal CLint [4] was 9.9 µL/min/mg, the IC50 [5] was > 10 nM and the IC50 [6] was > 10 nM.
